pIC50: −log10 of the molar value.
Test system: 855422-203-R-J1-PDC complex spheroid viability
Assay: Anticancer human tumor 855422-203-R-J1-PDC patient-derived bladder carcinoma cell line growth inhibition [POLQ]
Settings: for pIC50: curve of first compound; for viability, T/C: stronger effect = lower value
Description: Multicellular complex tumor spheroid response to Polymerase (POL) inhibitors (novobiocin, ART-558, RP6685) in combination with a variety of drugs and investigational agents in selected tumor cell lines
The POL inhibitors (novobiocin, ART-558, and RP6685) were evaluated both individually and in combination with standard of care and investigational anticancer small molecules within a complex spheroid model of solid tumors. . Complex spheroids include a stromal component modeled by human endothelial cells (HUVEC) and fibroblasts modeled by human mesenchymal stem cells (MSCs). The concentration ranges selected for each drug and investigational agent were based upon clinically achievable concentrations if the clinical Cmax of the agent was known.
Compounds. The drugs and investigational agents: novobiocin (NSC847541), ART-558 (NSC835418), RP-6685 (NSC848927), peposertib (NSC802822), ceralasertib (NSC780249), elimusertib (NSC800525), camonsertib (NSC841442), AZD-1390 (NSC803789), olaparib (NSC753686), talazoparib (NSC767125), rucaparib (NSC756644), sotorasib (NSC818433), MRTX-1133 (NSC836407), SN-38 (NSC673596), topotecan (NSC609699), epotoside (NSC141540), doxorubicin (NSC123127), gemcitabine (NSC613327), 5-fluorouracil (NSC19893), paclitaxel (NSC125973), vemurafenib (NSC761431), MSA-2 (NSC828583), SN-011 (NSC837082), adavosertib (NSC754352), prexasertib (NSC758257), carboplatin (NSC241240) and oxaliplatin (NSC266046), were obtained from the National Cancer Institute (NCI) Developmental Therapeutics Program Chemical Repository (21). The FDA-approved anticancer drug set is available from the Developmental Therapeutics Program at https://dtp.cancer.gov/organization/dscb/obtaining/. […] The stock solutions were prepared in dimethyl sulfoxide (DMSO, Sigma-Aldrich, St. Louis, MO, cat. D2650), except for the platinum compounds which were prepared in saline (Quality Biological, Gaithersburg, MD, cat. 114-055-101), at 800-fold the tested concentration and stored at -70 degrees C prior to their use. All drugs and investigational agents were tested over a range starting from a high concentration at or near the clinical Cmax and decreasing in half-log increments. If the clinical Cmax for an agent had not been determined, the highest concentration tested was 10 microM, except for SN-38, which was tested at a high concentration of 1 microM.
Cell Culture. All cells were maintained in an incubator at 37 degrees C and 5% CO2 with 95% humidity. The PDC lines were cultured according to standard operating procedures established by the NCI PDMR (https://pdmr.cancer.gov). Table 3 of the manuscript, lists the cell lines along with the number of the three cell types plated to form the mct-spheroids and media for tumor cell growth. After thawing, all PDC lines, except 997537-175-T-J1-PDC and 415267-285-R-J2-PDC, were cultured in Matrigel-coated flasks prepared with a working solution of 1X Ham's F-12 nutrient mix, without supplementation (Thermo Fisher Scientific, cat. 11765054), 100 U/mL penicillin-streptomycin (Thermo Fisher Scientific, cat. 15140122), and 2.5% Matrigel (Corning Inc., Corning, NY, cat. 354248) for the first three passages. The two PDC lines 997537-175-T-J1-PDC and 415267-285-R-J2-PDC were cultured on uncoated flasks. The 857933-349-R-J2-PDC line was cultured in 6C/Colon 1B media containing advanced DMEM/F-12 (Thermo Fisher Scientific, cat. 12634028), 10 mM HEPES (Thermo Fisher Scientific, cat. 15630080), 1X GlutaMAX supplement (Thermo Fisher Scientific, cat. 35050061), 0.1 mg/mL primocin (InvivoGen, San Diego, CA, cat. ant-pm-2), 10% defined fetal bovine serum, heat inactivated (HyClone Laboratories Inc., Logan, UT, cat. SH30070.03HI), 50% L-WRN conditioned media (ATCC, cat. CRL-3276), 1.25 mM N-Acetyl-L-cysteine (Sigma-Aldrich, cat. A9165), 10 mM nicotinamide (Sigma-Aldrich, cat. N0636), 1X B-27 supplement (Thermo Fisher Scientific, cat. 17504044), 1X N-2 supplement (Thermo Fisher Scientific, cat. […]

[1] = second compound 0.0316 µM, first compound 0.0316 µM
[2] = second compound 0.0316 µM, first compound 0.1 µM
[3] = second compound 0.0316 µM, first compound 0.316 µM
[4] = second compound 0.0316 µM, first compound 1 µM
[5] = second compound 0.0316 µM, first compound 3.16 µM
[6] = second compound 0.0316 µM, first compound 10 µM
[7] = second compound 0.1 µM, first compound 0.0316 µM
[8] = second compound 0.1 µM, first compound 0.1 µM
[9] = second compound 0.1 µM, first compound 0.316 µM
[10] = second compound 0.1 µM, first compound 1 µM
[11] = second compound 0.1 µM, first compound 3.16 µM
[12] = second compound 0.1 µM, first compound 10 µM
[13] = second compound 0.316 µM, first compound 0.0316 µM
[14] = second compound 0.316 µM, first compound 0.1 µM
[15] = second compound 0.316 µM, first compound 0.316 µM
[16] = second compound 0.316 µM, first compound 1 µM
[17] = second compound 0.316 µM, first compound 3.16 µM
[18] = second compound 0.316 µM, first compound 10 µM
[19] = second compound 1 µM, first compound 0.0316 µM
[20] = second compound 1 µM, first compound 0.1 µM
[21] = second compound 1 µM, first compound 0.316 µM
[22] = second compound 1 µM, first compound 1 µM
[23] = second compound 1 µM, first compound 3.16 µM
[24] = second compound 1 µM, first compound 10 µM
[25] = second compound 3.16 µM, first compound 0.0316 µM
[26] = second compound 3.16 µM, first compound 0.1 µM
[27] = second compound 3.16 µM, first compound 0.316 µM
[28] = second compound 3.16 µM, first compound 1 µM
[29] = second compound 3.16 µM, first compound 3.16 µM
[30] = second compound 3.16 µM, first compound 10 µM
[31] = second compound 10 µM, first compound 0.0316 µM
[32] = second compound 10 µM, first compound 0.1 µM
[33] = second compound 10 µM, first compound 0.316 µM
[34] = second compound 10 µM, first compound 1 µM
[35] = second compound 10 µM, first compound 3.16 µM
[36] = second compound 10 µM, first compound 10 µM
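Note: spheroids exposed to compounds for seven days before readout.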

## CC1COCCN1c1cc(C2(O)CC3CCC(C2)O3)c2cnn(-c3ccn[nH]3)c2n1 (stereo unspecified) + Cc1cccc(N(C)C(=O)C2C(O)CCN2c2nc(C)cc(C(F)(F)F)c2C#N)c1
Second compound 0.0316 µM
  pIC50: 7.03
Second compound 0.1 µM
  pIC50: 7.05
Second compound 0.316 µM
  pIC50: 7.05
Second compound 1 µM
  pIC50: 7.05
Second compound 3.16 µM
  pIC50: 7.04
Second compound 10 µM
  pIC50: 7.08
[1]
  viability, T/C: 109%
[2]
  viability, T/C: 46.7%
[3]
  viability, T/C: 14.1%
[4]
  viability, T/C: 9.62%
[5]
  viability, T/C: 6.47%
[6]
  viability, T/C: 3.79%
[7]
  viability, T/C: 91.8%
[8]
  viability, T/C: 45.9%
[9]
  viability, T/C: 12.6%
[10]
  viability, T/C: 9%
[11]
  viability, T/C: 6.6%
[12]
  viability, T/C: 4.11%
[13]
  viability, T/C: 104%
[14]
  viability, T/C: 43.5%
[15]
  viability, T/C: 16.4%
[16]
  viability, T/C: 8.37%
[17]
  viability, T/C: 6.11%
[18]
  viability, T/C: 3.68%
[19]
  viability, T/C: 95%
[20]
  viability, T/C: 45.5%
[21]
  viability, T/C: 13.2%
[22]
  viability, T/C: 9.4%
[23]
  viability, T/C: 5.77%
[24]
  viability, T/C: 3.51%
[25]
  viability, T/C: 97.5%
[26]
  viability, T/C: 45.8%
[27]
  viability, T/C: 10.4%
[28]
  viability, T/C: 9.18%
[29]
  viability, T/C: 6.79%
[30]
  viability, T/C: 4.13%
[31]
  viability, T/C: 83.4%
[32]
  viability, T/C: 44%
[33]
  viability, T/C: 15.1%
[34]
  viability, T/C: 9.77%
[35]
  viability, T/C: 7.49%
[36]
  viability, T/C: 2.55%

## O=C(Nc1ccc(O)c(NS(=O)(=O)c2ccc(F)cc2)c1)c1ccc(-c2ccccc2)cc1 + Cc1cccc(N(C)C(=O)C2C(O)CCN2c2nc(C)cc(C(F)(F)F)c2C#N)c1
Second compound 0.0316 µM
  pIC50: < 5.00
Second compound 0.1 µM
  pIC50: < 5.00
Second compound 0.316 µM
  pIC50: < 5.00
Second compound 1 µM
  pIC50: < 5.00
Second compound 3.16 µM
  pIC50: < 5.00
Second compound 10 µM
  pIC50: 5.10
[1]
  viability, T/C: 113%
[2]
  viability, T/C: 107%
[3]
  viability, T/C: 95%
[4]
  viability, T/C: 85.3%
[5]
  viability, T/C: 106%
[6]
  viability, T/C: 66.2%
[7]
  viability, T/C: 110%
[8]
  viability, T/C: 122%
[9]
  viability, T/C: 98.5%
[10]
  viability, T/C: 92.8%
[11]
  viability, T/C: 109%
[12]
  viability, T/C: 58.4%
[13]
  viability, T/C: 99%
[14]
  viability, T/C: 104%
[15]
  viability, T/C: 108%
[16]
  viability, T/C: 111%
[17]
  viability, T/C: 128%
[18]
  viability, T/C: 60.8%
[19]
  viability, T/C: 97.5%
[20]
  viability, T/C: 123%
[21]
  viability, T/C: 91.6%
[22]
  viability, T/C: 105%
[23]
  viability, T/C: 115%
[24]
  viability, T/C: 59.7%
[25]
  viability, T/C: 88.6%
[26]
  viability, T/C: 124%
[27]
  viability, T/C: 125%
[28]
  viability, T/C: 105%
[29]
  viability, T/C: 120%
[30]
  viability, T/C: 52.7%
[31]
  viability, T/C: 125%
[32]
  viability, T/C: 110%
[33]
  viability, T/C: 125%
[34]
  viability, T/C: 106%
[35]
  viability, T/C: 111%
[36]
  viability, T/C: 34.1%

## COc1cccc2c1C(=O)c1c(O)c3c(c(O)c1C2=O)CC(O)(C(=O)CO)CC3OC1CC(N)C(O)C(C)O1 (stereo unspecified) + Nc1ccc(C#CCN(C(=O)Cc2ncc(C(F)(F)F)cc2C(F)(F)F)c2ccc(F)cc2)nn1
Second compound 0.0316 µM
  pIC50: > 7.50
Second compound 0.1 µM
  pIC50: > 7.50
Second compound 0.316 µM
  pIC50: > 7.50
Second compound 1 µM
  pIC50: > 7.50
Second compound 3.16 µM
  pIC50: > 7.50
Second compound 10 µM
  pIC50: > 7.50
[1]
  viability, T/C: 26.2%
[2]
  viability, T/C: 12.8%
[3]
  viability, T/C: 3.75%
[4]
  viability, T/C: 0.9%
[5]
  viability, T/C: 1.51%
[6]
  viability, T/C: 4.81%
[7]
  viability, T/C: 25.7%
[8]
  viability, T/C: 12.2%
[9]
  viability, T/C: 3.22%
[10]
  viability, T/C: 0.93%
[11]
  viability, T/C: 1.37%
[12]
  viability, T/C: 3.69%
[13]
  viability, T/C: 26%
[14]
  viability, T/C: 12.8%
[15]
  viability, T/C: 2.51%
[16]
  viability, T/C: 0.82%
[17]
  viability, T/C: 1.39%
[18]
  viability, T/C: 5.31%
[19]
  viability, T/C: 24.3%
[20]
  viability, T/C: 11.5%
[21]
  viability, T/C: 4.7%
[22]
  viability, T/C: 0.92%
[23]
  viability, T/C: 1.13%
[24]
  viability, T/C: 6.67%
[25]
  viability, T/C: 26.3%
[26]
  viability, T/C: 12.7%
[27]
  viability, T/C: 4.52%
[28]
  viability, T/C: 1.14%
[29]
  viability, T/C: 1.38%
[30]
  viability, T/C: 4.89%
[31]
  viability, T/C: 21.4%
[32]
  viability, T/C: 12.1%
[33]
  viability, T/C: 2.85%
[34]
  viability, T/C: 2.62%
[35]
  viability, T/C: 1.74%
[36]
  viability, T/C: 5.86%
